The source of these data is US10294234B2, “HIV inhibitor compounds” (priority 2017, dated 2019).

The assay concerns HIV-1 (IIIB) in MT-4 cells. Briefly: MT-4 HIV assay. The class given is cell-based. Conditions: Human immunodeficiency virus 1, MT4, 120 h; HIV-1 (IIIB), MT-4 cells, 5 days, Cell Titer Glo; read-out: EC50. In short, it runs like this:
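MT-4 cells infected with HIV-1 IIIB (1:250 stock dilution) were incubated with 1:3 serially diluted compounds in RPMI with 10% FBS for 5 days at 37 °C. Cell Titer Glo luminescence was the readout. Plates included mock-infected wells, no-drug wells and 5 uM AZT controls.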
As a reminder, the EC50 is the concentration needed to bring the measured effect to its halfway point. Take `COC(=O)N[C@H](C(=O)N[C@@H](Cc1ccc(C#Cc2ccc(N3CC4CCC(C3)N4C3COC3)nc2C)cc1)[C@@H](O)CN(Cc1c(F)cc(-c2ccn(C(F)F)n2)cc1F)NC(=O)[C@@H](NC(=O)OC)C(C)(C)C(F)(F)F)C(C)(C)C(F)(F)F` [Example 152, Methyl ((5S,8S,9S,14S)-11-(4-(1-(difluoromethyl)-1H-pyrazol-3-yl)-2,6-difluorobenzyl)-16,16,16-trifluoro-9-hydroxy-15,15-dimethyl-8-(4-((2-methyl-6-(8-(oxetan-3-yl)-3,8-diazabicyclo[3.2.1]octan-3-yl)pyridin-3-yl)ethynyl)benzyl)-3,6,13-trioxo-5-(1,1,1-trifluoro-2-methylpropan-2-yl)-2-oxa-4,7,11,12-tetraazahexadecan-14-yl)carbamate]: the EC50 amounted to 6.16 nM. As for `COC(=O)N[C@H](C(=O)N[C@@H](Cc1ccc(C#Cc2ccc(N3CC4CCC(C3)N4C3COC3)nc2C)cc1)[C@@H](O)CN(Cc1c(F)cc(-c2cnn(C(F)F)c2)cc1F)NC(=O)[C@@H](NC(=O)OC)C(C)(C)C(F)(F)F)C(C)(C)C(F)(F)F` [Example 155, Methyl ((5S,8S,9S,14S)-11-(4-(1-(difluoromethyl)-1H-pyrazol-4-yl)-2,6-difluorobenzyl)-16,16,16-trifluoro-9-hydroxy-15,15-dimethyl-8-(4-((2-methyl-6-(8-(oxetan-3-yl)-3,8-diazabicyclo[3.2.1]octan-3-yl)pyridin-3-yl)ethynyl)benzyl)-3,6,13-trioxo-5-(1,1,1-trifluoro-2-methylpropan-2-yl)-2-oxa-4,7,11,12-tetraazahexadecan-14-yl)carbamate], the figure is 8.95 nM; as for `CC(C)([C@H](NC(=O)OC1CC1)C(=O)N[C@@H](Cc1ccc(C#Cc2ccc(N3CC4CCC(C3)N4C3COC3)nc2)cc1)[C@@H](O)CN(Cc1c(F)cc(-c2ccn(C(F)F)n2)cc1F)NC(=O)[C@@H](NC(=O)OC1CC1)C(C)(C)C(F)(F)F)C(F)(F)F` [Example 156, Cyclopropyl ((2S)-1-(2-((2S,3S)-3-((S)-2-((cyclopropoxycarbonyl)amino)-4,4,4-trifluoro-3,3-dimethylbutanamido)-2-hydroxy-4-(4-((6-(8-(oxetan-3-yl)-3,8-diazabicyclo[3.2.1]octan-3-yl)pyridin-3-yl)ethynyl)phenyl)butyl)-2-(4-(1-(difluoromethyl)-1H-pyrazol-3-yl)-2,6-difluorobenzyl)hydrazinyl)-4,4,4-trifluoro-3,3-dimethyl-1-oxobutan-2-yl)carbamate], 17 nM. Next, `COC(=O)N[C@H](C(=O)N[C@@H](Cc1ccc(C#Cc2ccc(N3CC4CCC(C3)N4C3COC3)nc2)cc1)[C@@H](O)CN(Cc1ccc(-c2cnn(C(F)F)c2)cc1F)NC(=O)[C@@H](NC(=O)OC)C(C)(C)C(F)(F)F)C(C)(C)C(F)(F)F` [Example 157, Methyl ((5S,8S,9S,14S)-11-(4-(1-(difluoromethyl)-1H-pyrazol-4-yl)-2-fluorobenzyl)-16,16,16-trifluoro-9-hydroxy-15,15-dimethyl-8-(4-((6-(8-(oxetan-3-yl)-3,8-diazabicyclo[3.2.1]octan-3-yl)pyridin-3-yl)ethynyl)benzyl)-3,6,13-trioxo-5-(1,1,1-trifluoro-2-methylpropan-2-yl)-2-oxa-4,7,11,12-tetraazahexadecan-14-yl)carbamate]: 4.53 nM; `COC(=O)N[C@H](C(=O)N[C@@H](Cc1ccc(C#Cc2cnc(N3CC4CCC(C3)N4C3COC3)nc2)cc1)[C@@H](O)CN(Cc1c(F)cc(-c2ccn(C(F)F)n2)cc1F)NC(=O)[C@@H](NC(=O)OC)C12CC(C(F)(F)F)(C1)C2)C12CC(C(F)(F)F)(C1)C2` [Example 160, Methyl ((5S,8S,9S,14S)-11-(4-(1-(difluoromethyl)-1H-pyrazol-3-yl)-2,6-difluorobenzyl)-9-hydroxy-8-(4-((2-(8-(oxetan-3-yl)-3,8-diazabicyclo[3.2.1]octan-3-yl)pyrimidin-5-yl)ethynyl)benzyl)-3,6,13-trioxo-5,14-bis(3-(trifluoromethyl)bicyclo[1.1.1]pentan-1-yl)-2-oxa-4,7,11,12-tetraazatetradecan-14-yl)carbamate]: 5700 nM; `COC(=O)N[C@H](C(=O)N[C@@H](Cc1ccc(C#Cc2ccc(N3CC4CCC(C3)N4)nc2)cc1)[C@@H](O)CN(Cc1c(F)cc(-c2cnn(C(F)F)c2)cc1F)NC(=O)[C@@H](NC(=O)OC)C(C)(C)C(F)(F)F)C(C)(C)C(F)(F)F` [Example 162, Methyl ((5S,8S,9S,14S)-8-(4-((6-(3,8-diazabicyclo[3.2.1]octan-3-yl)pyridin-3-yl)ethynyl)benzyl)-11-(4-(1-(difluoromethyl)-1H-pyrazol-4-yl)-2,6-difluorobenzyl)-16,16,16-trifluoro-9-hydroxy-15,15-dimethyl-3,6,13-trioxo-5-(1,1,1-trifluoro-2-methylpropan-2-yl)-2-oxa-4,7,11,12-tetraazahexadecan-14-yl)carbamate]: 12.2 nM. Next, `COC(=O)N[C@H](C(=O)N[C@@H](Cc1ccc(C#Cc2ccc(N3C[C@H]4CN(C)C[C@H]4C3)nc2)cc1)[C@@H](O)CN(Cc1c(F)cc(-c2ccn(C(F)F)n2)cc1F)NC(=O)[C@@H](NC(=O)OC)C(C)(C)C(F)(F)F)C(C)(C)C(F)(F)F` [Example 164, Methyl ((5S,8S,9S,14S)-11-(4-(1-(difluoromethyl)-1H-pyrazol-3-yl)-2,6-difluorobenzyl)-16,16,16-trifluoro-9-hydroxy-15,15-dimethyl-8-(4-((6-((3 aR,6aS)-5-methylhexahydropyrrolo[3,4-c]pyrrol-2(1H)-yl)pyridin-3-yl)ethynyl)benzyl)-3,6,13-trioxo-5-(1,1,1-trifluoro-2-methylpropan-2-yl)-2-oxa-4,7,11,12-tetraazahexadecan-14-yl)carbamate]: 7.89 nM.

As for `COC(=O)N[C@H](C(=O)N[C@@H](Cc1ccc(C#Cc2ccc(N3CC4CCC(C3)N4C(C)C)nc2)cc1)[C@@H](O)CN(Cc1c(F)cc(-c2cnn(C(F)F)c2)cc1F)NC(=O)[C@@H](NC(=O)OC)C(C)(C)C(F)(F)F)C(C)(C)C(F)(F)F` [Example 166, Methyl ((5S,8S,9S,14S)-11-(4-(1-(difluoromethyl)-1H-pyrazol-4-yl)-2,6-difluorobenzyl)-16,16,16-trifluoro-9-hydroxy-8-(4-((6-(8-isopropyl-3,8-diazabicyclo[3.2.1]octan-3-yl)pyridin-3-yl)ethynyl)benzyl)-15,15-dimethyl-3,6,13-trioxo-5-(1,1,1-trifluoro-2-methylpropan-2-yl)-2-oxa-4,7,11,12-tetraazahexadecan-14-yl)carbamate], the EC50 is 7.06 nM.

As for `CC(C)([C@H](NC(=O)OC1COC1)C(=O)N[C@@H](Cc1ccc(C#Cc2ccc(N3CC4CCC(C3)N4C3COC3)nc2)cc1)[C@@H](O)CN(Cc1c(F)cc(-c2ccn(C(F)F)n2)cc1F)NC(=O)[C@@H](NC(=O)OC1COC1)C(C)(C)C(F)(F)F)C(F)(F)F` [Example 169, oxetan-3-yl ((2S)-1-(2-(4-(1-(difluoromethyl)-1H-pyrazol-3-yl)-2,6-difluorobenzyl)-2-((2S,3S)-2-hydroxy-4-(4-((6-(8-(oxetan-3-yl)-3,8-diazabicyclo[3.2.1]octan-3-yl)pyridin-3-yl)ethynyl)phenyl)-3-((S)-4,4,4-trifluoro-33-dimethyl-2-(((oxetan-3-yloxy)carbonyl)amino)butanamido)butyl)hydrazinyl)-4,4,4-trifluoro-3,3-dimethyl-1-oxobutan-2-yl)carbamate], the EC50 is 6.76 nM. As for `COC(=O)N[C@H](C(=O)N[C@@H](Cc1ccc(C#Cc2cnc(N3CC4CCC(C3)N4)nc2)cc1)[C@@H](O)CN(Cc1c(F)cc(-c2ccn(C(F)F)n2)cc1F)NC(=O)[C@@H](NC(=O)OC)C(C)(C)C(F)(F)F)C(C)(C)C(F)(F)F` [Example 172, Methyl ((5S,8S,9S,14S)-8-(4-((2-(3,8-diazabicyclo[3.2.1]octan-3-yl)pyrimidin-5-yl)ethynyl)benzyl)-11-(4-(1-(difluoromethyl)-1H-pyrazol-3-yl)-2,6-difluorobenzyl)-16,16,16-trifluoro-9-hydroxy-15,15-dimethyl-3,6,13-trioxo-5-(1,1,1-trifluoro-2-methylpropan-2-yl)-2-oxa-4,7,11,12-tetraazahexadecan-14-yl)carbamate], the figure is 5.86 nM; as for `COC(=O)N[C@H](C(=O)N[C@@H](Cc1ccc(C#Cc2ccc(N3CC4CCC(C3)N4C3COC3)cc2)cc1)[C@@H](O)CN(Cc1c(F)cc(-c2ccccn2)cc1F)NC(=O)[C@@H](NC(=O)OC)C(C)(C)C(F)(F)F)C(C)(C)C(F)(F)F` [Example 177, Methyl ((5S,8S,9S,14S)-11-(2,6-difluoro-4-(pyridin-2-yl)benzyl)-16,16,16-trifluoro-9-hydroxy-15,15-dimethyl-8-(4-((4-(8-(oxetan-3-yl)-3,8-diazabicyclo [3.2.1]octan-3-yl)phenyl)ethynyl)benzyl)-3,6,13-trioxo-5-(1,1,1-trifluoro-2-methylpropan-2-yl)-2-oxa-4,7,11,12-tetraazahexadecan-14-yl)carbamate], 8.12 nM. As for `COC(=O)N[C@H](C(=O)N[C@@H](Cc1ccc(C#Cc2ccc(N3CC4CCC(C3)N4C3COC3)cc2)cc1)[C@@H](O)CN(Cc1c(F)cc(-c2ccn(C(F)F)n2)cc1F)NC(=O)[C@@H](NC(=O)OC)C(C)(C)C(F)(F)F)C(C)(C)C(F)(F)F` [Example 178, Methyl ((5S,8S,9S,14S)-11-(4-(1-(difluoromethyl)-1H-pyrazol-3-yl)-2,6-difluorobenzyl)-16,16,16-trifluoro-9-hydroxy-15,15-dimethyl-8-(4-((4-(8-(oxetan-3-yl)-3,8-diazabicyclo[3.2.1]octan-3-yl)phenyl)ethynyl)benzyl)-3,6,13-trioxo-5-(1,1,1-trifluoro-2-methylpropan-2-yl)-2-oxa-4,7,11,12-tetraazahexadecan-14-yl)carbamate], the figure is 10.3 nM.
